Key:
Format in all cases: in vivo
male Wistar rats [1] = assay: Colon mucosa permeability to 51Cr-EDTA, radioactivity in 24-hour urine of rats; conditions: rat; SLIGRL 0.05, 0.2 and 0.5 mg/rat into colon lumen at t=0; 10-hour intracolonic 51Cr-EDTA infusion; vs solvent
Experimental: Six groups of eight male Wistar rats (200-250 g) were used for this study. The animals were fitted with an indwelling intracolonic catheter in the proximal colon (3 cm from the caeco-colic junction). In these experiments, four groups of rats received a 10-hour intracolonic infusion of ^51Cr-EDTA ([…]). The animals were placed in separate cages and total 24-hour urine was collected. Radioactivity was measured in the urine to evaluate the permeability of the colon mucosa to ^51Cr-EDTA. Increasing doses of the PAR-2 activator peptide (SLIGRL) were injected in the colon lumen (groups 2, 3 and 4) at time t=0 (start of ^51Cr-EDTA infusion) at a dose of 0.05, 0.2 and 0.5 mg/rat. Group 1 received the solvent.

male Wistar rats [2] = assay: Rectal sensitivity to distention (abdominal contractions, EMG) after intracolonic trypsin; conditions: rat, distention at t=10 h, distention volumes 0.8, 1.2 and 1.6 ml, vs solvent control
Experimental: At time t=0, the animals received an intracolonic infusion of trypsin ([…]), a specific PAR-2 receptor activator at the dose of 20 units (group 1) or solvent (group 2). At time t=10 h after the intracolonic trypsin infusion, the animals were subjected to the rectal distention protocol.

male Swiss mice [3] = assay: Colon paracellular permeability in mice after trypsin, supernatant of colon contents and antibiotic cocktail; conditions: mouse, intracolonic trypsin 50 μL
Experimental: Groups of ten male Swiss mice (Janvier-France) weighing 25-30 g were used for this study. In baseline conditions, the effects on colon paracellular permeability of intracolonic infusion of trypsin (50 μL, 600 U) and of supernatant of colon contents taken from control mice and given by a 3-hour intracolonic infusion (250 μL/h) on one day (D1) or on two consecutive days (D2) were evaluated. The same infusions were then repeated after 12 days of treatment with oral an antibiotic cocktail (neomycin 2 mg/kg/day+ampicillin 1 mg/kg/day).

male Swiss mice [4] = assay: Paracellular permeability in mouse colon (51Cr-EDTA) during intracolonic infusion of protease inhibitors; conditions: 5-hour intracolonic infusion 250 μl/h, 51Cr-EDTA from hours 3 to 5
Experimental: Six groups of ten male Swiss mice (25-30 g) were used for this study. The animals received a 5-hour intracolonic infusion (250 μl/h) of the different protease inhibitor solutions through a catheter inserted through the rectum and fixed at the base of the tail; ^51Cr-EDTA was added to the infusion from hours 3 to 5 (FIG. 2). At t=5 hours, the animals were sacrificed, the colons removed, and total radioactivity remaining in the body was taken as an indicator of paracellular permeability.

SLIGRL
permeability to 51Cr-EDTA (recovery in 24-hour urine) (male Wistar rats [1]): dose-dependent increase

trypsin
abdominal response to rectal distention (male Wistar rats [2]): significant decrease
increase in colon permeability after the antibiotic treatment (male Swiss mice [3]; 600 U after 12 days of antibiotic cocktail): disappeared
colon paracellular permeability, baseline conditions (male Swiss mice [3]; 600 U, normal mice): increase

aprotinin
paracellular permeability (total radioactivity remaining in the body) (male Swiss mice [4]): significantly lower

CNC(=O)[C@H](Cc1c[nH]c2ccccc12)NC(=O)[C@@H](CC(=O)NO)CC(C)C [galardin]
paracellular permeability (total radioactivity remaining in the body) (male Swiss mice [4]): significantly lower
